Measured values reported in US6599499B1, “Uses of diterpenoid triepoxides as an anti-proliferative agent” (priority 1999, dated 2003).

Tests used:
HT1080 cells = test: Apoptosis by Annexin V and Propidium Iodide staining, HT1080 cells; assay type: cell-based, human; parameters: unit of the concentration uncertain; conditions: HT1080, 20 h, PG490 pretreatment 4 h then CPT-11 16 h
Experimental: HT1080 cells were treated as shown and harvested for analysis of apoptosis by Annexin V and Propidium Iodide staining 20 h after treatment. In experiments with a combination of PG490 and CPT-11, cells were pretreated with PG490 for 4 h followed by the addition of CPT-11 for 16 h.

HT1080 tumor cells = test: Nude mouse xenograft, established HT1080 tumors; assay type: in vivo, nude mice; conditions: PG490-88 0.75 mg/kg IP days 0-5 and 7-11, CPT-11 11 mg/kg IV days 1, 5, 9
Experimental: Mice. […] Nude mouse xenograft model. HT1080 tumor cells were grown in tissue culture flasks and harvested using EDTA and trypsin. Cells were centrifuged and the concentration of viable cells was appropriately adjusted. […] Tumor size was monitored after tumor cell implantation by measuring the width, length and thickness of the tumors and using a formula to calculate the volume. […] Control mice were left untreated. […] Combination therapy mice received both PG490-88 and CPT-11 treatments.

[1] = system: HT-29 human colon cancer cell line tumors; test: Nude mouse xenograft, established HT-29 colon cancer tumors; assay type: in vivo, nude mice
Experimental: HT-29 tumor cells grown in tissue culture were harvested and implanted intradermally on the backs of nude mice. Tumor size was monitored by measuring the dimensions of each tumor and calculating tumor volume with a formula. […] PG490-88 treatment at 0.25 mg/kg was administered daily i.p. 5 days per week for 2 weeks. Navelbine at 10 mg/kg was given i.v. on days 0 and 7. Mice in the combination treatment group received PG490-88 i.p. and Navelbine i.v. at the appropriate times. The treatments were given to mice at 100 μl per 10 g of mouse body weight. Tumor dimensions were measured periodically for calculation of tumor volumes. […] The data are presented as mean percent change in tumor volume from day 0 for each treatment group. Toxicity of the treatment was monitored by weighing the mice daily 5 days per week. In FIG. 8, a comparison is provided for tumor volumes on Days 0 and 14. Tumor dimensions were measured periodically for calculation of tumor volumes, and the final determinations were made on day 14.

H23 human tumor cells = conditions: day 14; PG490-88 0.25 mg/kg/day; taxol 10 mg/kg/day; IP
Experimental: Cell death reagents and assays. Cell viability was measured by an MTT assay as recently described (Lee et al. (1999) J. Biol. Chem. 274:13451-13455. z-VAD-fluoromethylketone (z-VAD.fmk) was obtained from Alexis Biochemicals, San Diego, Calif. The effect of z-VAD.fmk on cell viability was analyzed by annexin and propidium iodide staining followed by FACS analysis according to the manufacturer's protocol (Clontech Laboratories, Palo Alto, Calif.). The analysis of apoptosis in histologic sections was done by terminal deoxynucleotidyl transferase (TdT)-mediated d-UTP nick end labeling (TUNEL) of slides from paraffin sections of day 3 tumors harvested from the mice 24 h after the second of two daily treatments with PG490-88 or saline. TUNEL staining was done according to the manufacturer's protocol (Boehringer Mannheim, Indianapolis, Ind.) and then the histology slides were counterstained with methyl green. DNA was isolated from cells for analysis of internucleosomal DNA laddering followed by agarose gel electrophoresis and ethidium bromide staining.
Nude mouse xenograft model. Female NCr nude mice were purchased from Taconic, Germantown, N.Y., and were generally 20-24 grams when used. Mice were kept in autoclaved filter-top microisolator cages with autoclaved water and sterile food ad lib. The cages were maintained in an isolator unit providing filtered air (Lab Products, Inc., Maywood, N.J.). Tumor cells were grown and harvested as described above. NCr nude mice were injected intradermally with 5×10^6 tumor cells. In some experiments, treatment was initiated on the day of tumor cell implantation. […] Mice were treated IP daily for 5 days per week.
H23 tumor cells were implanted intradermally in nude mice. When the tumors reached approximately 100 mm^3, daily IP treatment with PG490-88 was initiated. […] The data in FIG. 3 represents the measurement of H23 tumor volume on day 14 after the initiation of treatment. Nude mice bearing xenografts of H23 human tumor cells were treated daily as shown. The data represent the means and the standard errors of the means of the tumor volumes as percent of the day 0 tumor volumes for each animal measured day 3, 6, 10 and 14 days after the initiation of treatment. There were 5 mice per group.

Dx5 cells = conditions: cited from earlier work

Question: Which “Apoptotic Cells (%)” value (HT1080 cells; CPT-11 (10 µM) alone, (10 μM) in combination with PG490 5 ng/ml) does the source give for CCc1c2c(nc3ccc(OC(=O)N4CCC(N5CCCCC5)CC4)cc13)-c1cc3c(c(=O)n1C2)COC(=O)[C@]3(O)CC [CPT-11, irinotecan, reference compound] here?
Answer: 5%

Question: What about the “Apoptotic Cells (%)” value (HT1080 cells; PG490 5 ng/ml, CPT-11 (5 µM) alone, (5 μM) in combination) of the same compound?
Answer: 0%

Question: What about the “TV Mean Day 4” value (HT1080 tumor cells) of the same compound?
Answer: 157

Question: What about the “TV Mean Day 7” value (HT1080 tumor cells) of the same compound?
Answer: 209

Question: And the “TV Mean Day 10” value (HT1080 tumor cells)?
Answer: 268

Question: And the “TV Mean Day 14” value (HT1080 tumor cells)?
Answer: 495

Question: What about the “TV Mean Day 0” value (HT1080 tumor cells; baseline) of the same compound?
Answer: 107

Question: For CCC1=C[C@@H]2CN(C1)Cc1c([nH]c3ccccc13)[C@@](C(=O)OC)(c1cc3c(cc1OC)N(C)[C@H]1[C@@](O)(C(=O)OC)[C@H](OC(C)=O)[C@]4(CC)C=CCN5CC[C@]31[C@@H]54)C2 [Navelbine, vinorelbine, reference compound], which “increase in tumor volume from day 0 by day 14” value ([1]; PG490-88 0.25 mg/kg i.p. 5 days per week for 2 weeks, Navelbine 10 mg/kg i.v. days 0 and 7) is on record?
Answer: 343%

Question: And the “Day 0 Tumor Volume (mm^3) Mean” value ([1]; baseline at grouping, before treatment)?
Answer: 109 mm^3

Question: For CC(=O)O[C@H]1C(=O)[C@@]2(C)[C@H]([C@H](OC(=O)c3ccccc3)[C@]3(O)C[C@H](OC(=O)[C@H](O)[C@@H](NC(=O)c4ccccc4)c4ccccc4)C(C)=C1C3(C)C)[C@]1(OC(C)=O)CO[C@@H]1C[C@@H]2O [taxol, reference compound], which “tumor volume as % of the vehicle control” value (H23 human tumor cells) is on record?
Answer: 42%

Question: And the “fold more resistant than the MES-SA parent cell line” value (Dx5 cells)?
Answer: 1000 fold
